Measurements as given in the NIST ThermoML archive (doi:10.1016/j.jct.2017.03.006).
± gives the expanded uncertainty stated by the source.

Experiment: molar heat capacity at constant pressure; xn = mol fraction of the nth substance listed
Conditions: Liquid, Flow calorimetry

Cc1ccc(C)c(C)c1 [1,2,4-trimethylbenzene] + CCC(C)O
molar heat capacity at constant pressure [J/K/mol]
Conditions	x2 = 0	x2 = 0.1001	x2 = 0.3	x2 = 0.5298	x2 = 0.6001	x2 = 0.7001	x2 = 0.7997	x2 = 0.9001
293.15 K, 100 kPa	216.2 ± 3	219.6 ± 3.1	221.6 ± 3.1	223.7 ± 3.1	216 ± 3	213 ± 3	206.9 ± 2.9	200.5 ± 2.8
293.15 K, 5000 kPa	215 ± 3	218.1 ± 3.1	220.8 ± 3.1	222.1 ± 3.1	215.3 ± 3	211.7 ± 3	205.2 ± 2.9	198.5 ± 2.8
293.15 K, 10000 kPa	213.3 ± 3	217 ± 3.1	219.6 ± 3.1	220.3 ± 3.1	213.9 ± 3	210.4 ± 3	203.7 ± 2.9	196.8 ± 2.8
293.15 K, 15000 kPa	212.5 ± 3	216.2 ± 3	219 ± 3.1	218.9 ± 3.1	213.2 ± 3	208.5 ± 2.9	201.9 ± 2.8	195.5 ± 2.8
293.15 K, 20000 kPa	210.8 ± 3	215.2 ± 3	218.3 ± 3.1	217.6 ± 3.1	211.7 ± 3	206.9 ± 2.9	200.7 ± 2.8	194.6 ± 2.7
293.15 K, 25000 kPa	209.8 ± 3	214.6 ± 3	217.3 ± 3.1	215.9 ± 3	210.5 ± 3	205.5 ± 2.9	199.7 ± 2.8	193.3 ± 2.7
313.15 K, 100 kPa	222.5 ± 3.1	231.1 ± 3.3	235.8 ± 3.3	234.2 ± 3.3	233.8 ± 3.3	232.1 ± 3.3	226.9 ± 3.2	224.2 ± 3.2
313.15 K, 5000 kPa	221.2 ± 3.1	230.3 ± 3.2	233.7 ± 3.3	232.8 ± 3.3	232.6 ± 3.3	230 ± 3.2	224.8 ± 3.2	221.1 ± 3.1
313.15 K, 10000 kPa	219.6 ± 3.1	229.5 ± 3.2	232.6 ± 3.3	231.9 ± 3.3	230.1 ± 3.2	227.4 ± 3.2	222.4 ± 3.1	218.9 ± 3.1
313.15 K, 15000 kPa	218.5 ± 3.1	228.8 ± 3.2	231.1 ± 3.3	230.9 ± 3.3	229 ± 3.2	225.3 ± 3.2	220.6 ± 3.1	217.3 ± 3.1
313.15 K, 20000 kPa	217.7 ± 3.1	227.7 ± 3.2	229.9 ± 3.2	229.6 ± 3.2	227.2 ± 3.2	223.8 ± 3.2	219.3 ± 3.1	216 ± 3
313.15 K, 25000 kPa	217.1 ± 3.1	226.4 ± 3.2	229.5 ± 3.2	228.2 ± 3.2	225.6 ± 3.2	222.7 ± 3.1	218.1 ± 3.1	214.1 ± 3
